What was measured:
Assay in all cases: relative viability (nuclei count vs DMSO), 5 days (fraction); higher = more cells survive
BEN = tested on: BEN
In short: (§1)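 For relative viability, nuclei counts in treated wells were divided by those in vehicle wells. Lung cancer cell lines had been pin-tool dosed in 1536-well plates the day after seeding and cultured for 5 days, then fixed and stained in one step (final 0.05% Triton X-100, 1% formaldehyde, 1 ug/ml Hoechst) and imaged at 4×. Doses were one drug alone or a fixed anchor-drug dose plus five library-drug doses (not always all listed) in √10 steps, and values are duplicate-plate medians.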

ChaGo-K-1 = tested on: ChaGo-K-1
In short: as §1

HCC-78 = tested on: HCC-78
In short: as §1

LC-2-ad = tested on: LC-2-ad
In short: as §1

LCLC-97TM1 = tested on: LCLC-97TM1
In short: as §1

LK-2 = tested on: LK-2
In short: as §1

LU99A = tested on: LU99A
In short: as §1

LXF-289 = tested on: LXF-289
In short: as §1

NCI-H1355 = tested on: NCI-H1355
In short: as §1

NCI-H1651 = tested on: NCI-H1651
In short: as §1

NCI-H1666 = tested on: NCI-H1666
In short: as §1

Question: Which results are given for `Cc1sc2c(c1C)C(c1ccc(Cl)cc1)=N[C@@H](CC(=O)OC(C)(C)C)c1nnc(C)n1-2` [JQ1] + O=C(c1cc(Cc2n[nH]c(=O)c3ccccc23)ccc1F)N1CCN(C(=O)C2CC2)CC1 [Olaparib] (partner 8 µM)?
Answer: relative viability (BEN; first compound 0.04 µM): 1.02; relative viability (BEN; first compound 0.1265 µM): 0.76; relative viability (BEN; first compound 0.4 µM): 0.671; relative viability (BEN; first compound 1.265 µM): 0.346; relative viability (BEN; first compound 4 µM): 0.243; relative viability (ChaGo-K-1; first compound 0.04 µM): 0.392; relative viability (ChaGo-K-1; first compound 0.1265 µM): 0.37; relative viability (ChaGo-K-1; first compound 0.4 µM): 0.29; relative viability (ChaGo-K-1; first compound 1.265 µM): 0.239; relative viability (ChaGo-K-1; first compound 4 µM): 0.214; relative viability (HCC-78; first compound 0.04 µM): 0.7; relative viability (HCC-78; first compound 0.1265 µM): 0.693; relative viability (HCC-78; first compound 0.4 µM): 0.807; relative viability (HCC-78; first compound 1.265 µM): 0.581; relative viability (HCC-78; first compound 4 µM): 0.494; relative viability (LC-2-ad; first compound 0.04 µM): 0.701; relative viability (LC-2-ad; first compound 0.1265 µM): 0.599; relative viability (LC-2-ad; first compound 0.4 µM): 0.332; relative viability (LC-2-ad; first compound 1.265 µM): 0.256; relative viability (LC-2-ad; first compound 4 µM): 0.256; relative viability (LCLC-97TM1; first compound 0.04 µM): 0.354; relative viability (LCLC-97TM1; first compound 0.1265 µM): 0.297; relative viability (LCLC-97TM1; first compound 0.4 µM): 0.297; relative viability (LCLC-97TM1; first compound 1.265 µM): 0.149; relative viability (LCLC-97TM1; first compound 4 µM): 0.108; relative viability (LK-2; first compound 0.04 µM): 0.639; relative viability (LK-2; first compound 0.1265 µM): 0.74; relative viability (LK-2; first compound 0.4 µM): 0.409; relative viability (LK-2; first compound 1.265 µM): 0.155; relative viability (LK-2; first compound 4 µM): 0.15; relative viability (LU99A; first compound 0.04 µM): 0.264; relative viability (LU99A; first compound 0.4 µM): 0.169; relative viability (LU99A; first compound 1.265 µM): 0.114; relative viability (LU99A; first compound 4 µM): 0.111; relative viability (LXF-289; first compound 0.04 µM): 0.99; relative viability (LXF-289; first compound 0.1265 µM): 1.06; relative viability (LXF-289; first compound 0.4 µM): 0.744; relative viability (LXF-289; first compound 1.265 µM): 0.47; relative viability (LXF-289; first compound 4 µM): 0.258; relative viability (NCI-H1355; first compound 0.04 µM): 0.626; relative viability (NCI-H1355; first compound 0.1265 µM): 0.697; relative viability (NCI-H1355; first compound 0.4 µM): 0.643; relative viability (NCI-H1355; first compound 1.265 µM): 0.403; relative viability (NCI-H1355; first compound 4 µM): 0.344; relative viability (NCI-H1651; first compound 0.04 µM): 0.175; relative viability (NCI-H1651; first compound 0.1265 µM): 0.173; relative viability (NCI-H1651; first compound 0.4 µM): 0.151; relative viability (NCI-H1651; first compound 1.265 µM): 0.132; relative viability (NCI-H1651; first compound 4 µM): 0.136; relative viability (NCI-H1666; first compound 0.04 µM): 0.708; relative viability (NCI-H1666; first compound 0.1265 µM): 0.616; relative viability (NCI-H1666; first compound 0.4 µM): 0.685; relative viability (NCI-H1666; first compound 1.265 µM): 0.662; relative viability (NCI-H1666; first compound 4 µM): 0.577

From the supplement of paper PMC10307832
